In the supplement of paper PMC12420376 one finds drug sensitivity score data, which are given here for 25 molecules.

The subject of test [1] is KURAMOCHI
Briefly: drug sensitivity score (DSS2) on cancer cell count; higher = more sensitive; extreme values may be limits of the assay. Particulars: 72 h. The method in brief:
(§1)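 Ovarian cancer cells were grown alone or in 1:1 direct co-culture with lung or skin fibroblasts. They were plated onto 384-well plates pre-spotted acoustically with 528 approved and investigational compounds at 5 concentrations, then treated for 72 h. Cells were fixed, immunostained for CK8/18 with Hoechst, and imaged at 10× (4 fields) to count cancer cells. A drug sensitivity score (DSS2) was derived in Breeze from 4-parameter logistic fits, with screen quality checked by Z'.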

Test [2] relates to OVCAR8. The description is as above. As to conditions: 72 h. The method in brief: as §1
The mark [3] stands for this setting: co-cultured fibroblast: BJHTERT.
[4] abbreviates: co-cultured fibroblast: none (monoculture).

As for `CO[C@H]1C[C@@H]2CC[C@@H](C)[C@@](O)(O2)C(=O)C(=O)N2CCCC[C@H]2C(=O)O[C@H]([C@H](C)C[C@@H]2CC[C@@H](OP(C)(C)=O)[C@H](OC)C2)CC(=O)[C@H](C)/C=C(\C)[C@@H](O)[C@@H](OC)C(=O)[C@H](C)C[C@H](C)/C=C/C=C/C=C/1C` [Ridaforolimus], the drug sensitivity score in test [1] (setting [3]) is 11.6 DSS; in test [1] (co-cultured fibroblast: WI38), 13.4 DSS; in test [1] (setting [4]), 8.1 DSS; in test [2] (setting [3]), 7.1 DSS; in test [2] (co-cultured fibroblast: WI38), 0 DSS; in test [2] (setting [4]) it was 9.8 DSS.

Turning to `Cc1sc2c(c1C)C(c1ccc(Cl)cc1)=N[C@@H](CC(=O)Nc1ccc(OCCOCCOCCOCCNc3cccc4c3C(=O)N(C3CCC(=O)NC3=O)C4=O)cc1)c1nnc(C)n1-2` (stereo not given in full) [ARV-825], the drug sensitivity score in test [1] (setting [3]) amounted to 6.9 DSS; in test [1] (co-cultured fibroblast: WI38), 7.9 DSS; in test [1] (setting [4]), 4.5 DSS; in test [2] (setting [3]), 19.6 DSS; in test [2] (co-cultured fibroblast: WI38), 14.7 DSS; in test [2] (setting [4]), 18.8 DSS.

On to `CCC(C)n1ncn(-c2ccc(N3CCN(c4ccc(OCC5COC(Cn6cncn6)(c6ccc(Cl)cc6Cl)O5)cc4)CC3)cc2)c1=O` (stereo not given) [Itraconazole], for which the drug sensitivity score in test [1] (setting [3]) was 0 DSS; in test [1] (co-cultured fibroblast: WI38), 0 DSS; in test [1] (setting [4]), 0 DSS; in test [2] (setting [3]), 1 DSS; in test [2] (co-cultured fibroblast: WI38), 11.5 DSS; in test [2] (setting [4]), 0.1 DSS.

With `CC(C)(C#N)c1cc(Cn2cncn2)cc(C(C)(C)C#N)c1` [Anastrozole], the drug sensitivity score in test [1] (setting [3]), in test [1] (co-cultured fibroblast: WI38), in test [1] (setting [4]), in test [2] (setting [3]), in test [2] (co-cultured fibroblast: WI38) and in test [2] (setting [4]) was 0 DSS in each case.

With `O=C(O)C1(C(=O)O)CCC1.[NH2-].[NH2-].[Pt+2]` [Carboplatin], the drug sensitivity score amounted to 13.3 DSS in test [1] (setting [3]); 18.1 DSS in test [1] (co-cultured fibroblast: WI38); 22.9 DSS in test [1] (setting [4]); 9.4 DSS in test [2] (setting [3]); 8.6 DSS in test [2] (co-cultured fibroblast: WI38); 12.3 DSS in test [2] (setting [4]).

With `CCN(CC)CCCC(C)Nc1c2ccc(Cl)cc2nc2ccc(OC)cc12` (stereo not given) [Mepacrine], the drug sensitivity score in test [1] (setting [3]) was 13.8 DSS; in test [1] (co-cultured fibroblast: WI38) it was 13.8 DSS; in test [1] (setting [4]), 19.1 DSS; in test [2] (setting [3]) it was 19.8 DSS; in test [2] (co-cultured fibroblast: WI38) it was 14.2 DSS; in test [2] (setting [4]) it was 14.4 DSS.

Turning to `CC(C)NC(=O)COc1cccc(-c2nc(Nc3ccc4[nH]ncc4c3)c3ccccc3n2)c1` [KD025], the drug sensitivity score in test [1] (setting [3]) came to 1.2 DSS; in test [1] (co-cultured fibroblast: WI38) it was 1.3 DSS; in test [1] (setting [4]), 0 DSS; in test [2] (setting [3]), 5 DSS; in test [2] (co-cultured fibroblast: WI38), 8.3 DSS; in test [2] (setting [4]) it was 0.3 DSS.

Turning to `S=C(NCc1ccc2c(c1)OCO2)N1CCN(c2ncnc3c2oc2ccccc23)CC1` [Amuvatinib], the drug sensitivity score was found to be 2.5 DSS in test [1] (setting [3]); 0.5 DSS in test [1] (co-cultured fibroblast: WI38); 0 DSS in test [1] (setting [4]); 8.6 DSS in test [2] (setting [3]); 0 DSS in test [2] (co-cultured fibroblast: WI38); 2.2 DSS in test [2] (setting [4]).

Turning to `CNC(=O)c1cc(Oc2ccc(NC(=O)Nc3ccc(Cl)c(C(F)(F)F)c3)c(F)c2)ccn1` [Regorafenib], the drug sensitivity score in test [1] (setting [3]) stood at 5.5 DSS; in test [1] (co-cultured fibroblast: WI38) it was 3.6 DSS; in test [1] (setting [4]) it was 3.2 DSS; in test [2] (setting [3]), 5.4 DSS; in test [2] (co-cultured fibroblast: WI38) it was 3.3 DSS; in test [2] (setting [4]), 5.5 DSS.

Take `CNC(=O)c1ccc(-c2cnc3ncc(Cc4ccc5ncccc5c4)n3n2)cc1F` [Capmatinib]: the drug sensitivity score in test [1] (setting [3]), in test [1] (co-cultured fibroblast: WI38), in test [1] (setting [4]), in test [2] (setting [3]), in test [2] (co-cultured fibroblast: WI38) and in test [2] (setting [4]) was 0 DSS in each case.

For the molecule `NC(=O)Nc1cc(-c2cccc(F)c2)sc1C(=O)N[C@H]1CCCNC1` [AZD7762], the drug sensitivity score came to 8.7 DSS in test [1] (setting [3]); 6.6 DSS in test [1] (co-cultured fibroblast: WI38); 22.4 DSS in test [1] (setting [4]); 7.3 DSS in test [2] (setting [3]); 9.2 DSS in test [2] (co-cultured fibroblast: WI38); 4.5 DSS in test [2] (setting [4]).

Take `C[C@@H]1COCCN1c1cc(C2([S@](C)(=N)=O)CC2)nc(-c2cc[nH]c3nccc2-3)n1` [AZD6738]: the drug sensitivity score in test [1] (setting [3]) turned out to be 10.4 DSS; in test [1] (co-cultured fibroblast: WI38) it was 8.6 DSS; in test [1] (setting [4]) it was 10.9 DSS; in test [2] (setting [3]), 11.1 DSS; in test [2] (co-cultured fibroblast: WI38), 4.4 DSS; in test [2] (setting [4]) it was 8.1 DSS.

On to `C[C@H]1C[C@@H](n2c(Nc3ccc(OC(F)(F)F)cc3)nc3cc(CCC(=O)O)ccc32)CC(C)(C)C1`, for which the drug sensitivity score in test [1] (setting [3]), in test [1] (co-cultured fibroblast: WI38), in test [1] (setting [4]), in test [2] (setting [3]), in test [2] (co-cultured fibroblast: WI38) and in test [2] (setting [4]) was 0 DSS in each case.

On to `Cn1cnc2c(F)c(Nc3ccc(Br)cc3F)c(C(=O)NOCCO)cc21` [Binimetinib], for which the drug sensitivity score in test [1] (setting [3]) was 2.2 DSS; in test [1] (co-cultured fibroblast: WI38), 0 DSS; in test [1] (setting [4]), 0 DSS; in test [2] (setting [3]) it was 2.4 DSS; in test [2] (co-cultured fibroblast: WI38), 0 DSS; in test [2] (setting [4]), 4 DSS.

`Cn1ncnc1[C@H]1c2n[nH]c(=O)c3cc(F)cc(c23)N[C@@H]1c1ccc(F)cc1` [Talazoparib]: the drug sensitivity score in test [1] (setting [3]) came out at 10.5 DSS; in test [1] (co-cultured fibroblast: WI38), 15 DSS; in test [1] (setting [4]) it was 16.3 DSS; in test [2] (setting [3]), 19.5 DSS; in test [2] (co-cultured fibroblast: WI38), 15.3 DSS; in test [2] (setting [4]), 15.8 DSS.

`CCC/C=C/C=C/C(=O)O[C@H]1/C(=C/C(=O)OC)C[C@H]2C[C@H]([C@@H](C)O)OC(=O)C[C@H](O)C[C@@H]3C[C@H](OC(C)=O)C(C)(C)[C@](O)(C[C@@H]4C/C(=C/C(=O)OC)C[C@H](/C=C/C(C)(C)[C@]1(O)O2)O4)O3` [Bryostatin 1]: the drug sensitivity score in test [1] (setting [3]) came to 0 DSS; in test [1] (co-cultured fibroblast: WI38) it was 0 DSS; in test [1] (setting [4]), 6.4 DSS; in test [2] (setting [3]), 2.9 DSS; in test [2] (co-cultured fibroblast: WI38), 0 DSS; in test [2] (setting [4]), 0 DSS.

For `CO[C@@H](C)Cn1c(=O)n(C)c2cnc3ccc(-c4cncc(C(C)(C)O)c4)cc3c21`, the drug sensitivity score stood at 11.9 DSS in test [1] (setting [3]); 10.9 DSS in test [1] (co-cultured fibroblast: WI38); 9.2 DSS in test [1] (setting [4]); 9.6 DSS in test [2] (setting [3]); 9.6 DSS in test [2] (co-cultured fibroblast: WI38); 9.8 DSS in test [2] (setting [4]).

On to `Cc1nc(C(=O)NCC(=O)O)c(O)c2ccc(Oc3ccccc3)cc12` [Roxadustat], for which the drug sensitivity score in test [1] (setting [3]) was 3 DSS; in test [1] (co-cultured fibroblast: WI38), 0 DSS; in test [1] (setting [4]) it was 0 DSS; in test [2] (setting [3]) it was 0 DSS; in test [2] (co-cultured fibroblast: WI38), 0 DSS; in test [2] (setting [4]) it was 0 DSS.

For `CN(C)Cc1c(C(=O)NCCOc2ccc(C(=O)NO)cc2)oc2ccccc12` [Abexinostat], the drug sensitivity score amounted to 17.2 DSS in test [1] (setting [3]); 20.6 DSS in test [1] (co-cultured fibroblast: WI38); 15.7 DSS in test [1] (setting [4]); 25.3 DSS in test [2] (setting [3]); 18.5 DSS in test [2] (co-cultured fibroblast: WI38); 27.9 DSS in test [2] (setting [4]).

As for `CN1CCC(CNc2ccc3ncc(-c4cccc(OC(F)(F)F)c4)n3n2)CC1` [SGI-1776], the drug sensitivity score in test [1] (setting [3]) came out at 7.9 DSS; in test [1] (co-cultured fibroblast: WI38), 6.1 DSS; in test [1] (setting [4]), 7.6 DSS; in test [2] (setting [3]), 8.5 DSS; in test [2] (co-cultured fibroblast: WI38) it was 4.5 DSS; in test [2] (setting [4]), 5.2 DSS.

As to `CNC(=O)c1cc(COc2nnc(Nc3ccc(Cl)cc3)c3ccoc23)ccn1` [Telatinib], the drug sensitivity score in test [1] (setting [3]) was 0 DSS; in test [1] (co-cultured fibroblast: WI38), 0.4 DSS; in test [1] (setting [4]), 16.6 DSS; in test [2] (setting [3]), 1.1 DSS; in test [2] (co-cultured fibroblast: WI38), 0 DSS; in test [2] (setting [4]), 0 DSS.

`Cc1cc(C)c(CNC(=O)c2cc(-c3ccc(CN4CCOCC4)cc3)cc3c2cnn3C2CCCC2)c(=O)[nH]1` [EPZ-5687]: the drug sensitivity score in test [1] (setting [3]) worked out at 0 DSS; in test [1] (co-cultured fibroblast: WI38) it was 0 DSS; in test [1] (setting [4]), 0 DSS; in test [2] (setting [3]), 0 DSS; in test [2] (co-cultured fibroblast: WI38), 0 DSS; in test [2] (setting [4]), 2.7 DSS.

Take `Nc1nc(OCc2cc(Br)cs2)c2[nH]cnc2n1` [Lomeguatrib]: the drug sensitivity score in test [1] (setting [3]) turned out to be 0 DSS; in test [1] (co-cultured fibroblast: WI38), 0 DSS; in test [1] (setting [4]), 0 DSS; in test [2] (setting [3]), 0 DSS; in test [2] (co-cultured fibroblast: WI38) it was 0.8 DSS; in test [2] (setting [4]) it was 0 DSS.

Turning to `O=C(O)c1ccc(-c2c[nH]c3ncc(-c4ccccc4)cc23)cc1C1CCCC1`, the drug sensitivity score in test [1] (setting [3]) is 6.8 DSS; in test [1] (co-cultured fibroblast: WI38) it was 7.3 DSS; in test [1] (setting [4]), 7.1 DSS; in test [2] (setting [3]), 2 DSS; in test [2] (co-cultured fibroblast: WI38), 4.8 DSS; in test [2] (setting [4]), 8.1 DSS.

In the case of `Cn1nccc1Nc1nccc(-c2ccn([C@H](CO)c3ccc(Cl)c(F)c3)c(=O)c2)n1` [Ravoxertinib], the drug sensitivity score in test [1] (setting [3]) worked out at 3.6 DSS; in test [1] (co-cultured fibroblast: WI38), 3.2 DSS; in test [1] (setting [4]), 3.3 DSS; in test [2] (setting [3]), 2.2 DSS; in test [2] (co-cultured fibroblast: WI38) it was 4.3 DSS; in test [2] (setting [4]) it was 4.9 DSS.
